Reference: US10882859B2, “Kinase inhibitors” (Topivert Pharma Limited, priority 2015, dated 2021)
≈ marks a conversion by molar mass, not a printed value. Where two headings read alike, the source gives them in different places.

How the values were obtained:
[1] = target: JAK3 (Homo sapiens (Human), UniProt P52333); assay: KINOMEscan enzyme binding assay (DiscoveRx), JAK3; settings: read-out: Dissociation Constant JAK3
Procedure: (§1) These assays may be conducted by DiscoveRx (formerly Ambit; San Diego, Calif.). The percentage inhibition produced by incubation with a test compound may be calculated relative to the non-inhibited control.

[2] = target: JAK1 (Homo sapiens (Human), UniProt P23458); assay: KINOMEscan enzyme binding assay (DiscoveRx), JAK1; settings: read-out: Dissociation Constant JAK1
Procedure: as §1

[3] = tested on: Jurkat cells; assay: Cell cytotoxicity assay (propidium iodide, flow cytometry); assay type: cell-based, human; settings: 24 h
Procedure: 1×10^5 Jurkat cells (immortalised human T lymphocytes) are added to the appropriate number of wells of a 96 well plate in 100 μL of media (RPMI supplemented with 10% foetal bovine serum). 1 μL of DMSO control (final concentration 1.0% v/v) or test compound (final concentration 20, 5 or 1 μg/mL) is added to the wells and incubated at 37° C., 5% CO2. After 24 hours, the plate is centrifuged at 1200 rpm for 3 minutes and the supernatant discarded. Cells are then resuspended in 150 μL (final concentration 7.5 μg/mL) of propidium iodide (PI) in PBS and incubated at 37° C., 5% CO2 for 15 minutes. After 15 minutes, cells are analysed by flow cytometry (BD accuri) using the FL3 window. The % viability is calculated as the % of cells that are PI negative in the test wells normalised to the DMSO control.

[4] = tested on: CD3/IL2 stimulated PBMC cells; assay: IFNγ release from CD3/IL2 stimulated PBMC cells; assay type: cell-based; settings: Homo sapiens, CD3/IL2 stimulation, 48 h, ELISA
Procedure: PBMCs from healthy subjects are separated from whole blood using a density gradient (Lymphoprep, Axis-Shield Healthcare). Cells are added to a 96 well plate, and compound at the desired concentration added 2 hours prior to stimulation with a mixture of monoclonal antibody to CD3 (1 μg/ml, eBioscience) and human recombinant IL2 (10 ng/ml, Peprotech). After 48 hours incubation under normal tissue culture conditions, supernatants are collected and IFNγ release determined by Sandwich ELISA (Duo-set, R&D System). The IC50 is determined from the dose response curve.

[5] = target: JAK2 (Homo sapiens (Human), UniProt O60674); assay: KINOMEscan enzyme binding assay (DiscoveRx), JAK2; settings: read-out: Dissociation Constant JAK2
Procedure: as §1

[6] = Solubility in fasted-state simulated colonic fluid (FaSSCoF); assay type: physicochemical; settings: 25 °C, pH 6.5, fassgf or other biorelevant, thermodynamic from solid, pH 6.5, 25° C.
Procedure: The solubilities of compounds of the invention in FaSSCoF at pH 6.5 are determined using a modification of a previously-reported procedure (Vertzoni, M., et al. Pharm. Res. 2010, 27, 2187-2196). In place of the bile salt extract employed in the original procedure (which extract is no longer available), the modified procedure uses a mixture of sodium taurochlorate (0.15 g), glycocholic acid (0.15 g), ursodeoxycholic acid (0.05 g), cholic acid (0.05 g), and glycodeoxycholic acid (0.05 g). These five bile acids are ground together with a mortar and pestle to produce a fine white powder that is incorporated into the FaSSCoF, as outlined below.
FaSSCoF medium: Tris(hydroxymethyl)aminomethane (Tris; 0.275 g) and maleic acid (0.44 g) are dissolved in water (35 mL) to give a solution whose pH is adjusted to 6.5 by treatment with 0.5M NaOH (ca. 12 mL). The solution is then made up to 50 mL with water. A portion of this Tris/maleate buffer solution (ca. 25 mL) is added to a 0.5 L round-bottomed flask, before being treated with 0.00565 g of the bile acid mixture described above. Solutions of phosphatidylcholine (0.0111 g) in DCM (0.15 mL) and palmitic acid (0.0013 g) in DCM (0.15 mL) are added, then the organic solvent is evaporated off under reduced pressure at 40° C. until a clear solution, with no perceptible DCM odour, is achieved. The volume of the evaporated solution is adjusted to 50 mL by addition of the remainder of Tris/maleate buffer, then BSA (0.115 g) is added, before being dissolved by gentle agitation.
Solubility Determination: Test compounds are suspended in the pH 6.5 FaSSCoF medium to give a maximum final concentration of 2-10 mg/mL. The suspensions are equilibrated at 25° C. for 24 h, before being filtered through a glass fibre C filter. The filtrates are then diluted as appropriate for injection and quantification by HPLC with reference to a standard. Different volumes of the standard, diluted and undiluted sample solutions are injected and the solubilities are calculated using the peak areas determined by integration of the peak found at the same retention time as the principal peak in the standard injection.

[7] = target: TYK2 (Homo sapiens (Human), UniProt P29597); assay: KINOMEscan enzyme binding assay (DiscoveRx), TYK2; settings: read-out: Dissociation Constant TYK2
Procedure: as §1

Chain of JAK1 (P23458 whole entry): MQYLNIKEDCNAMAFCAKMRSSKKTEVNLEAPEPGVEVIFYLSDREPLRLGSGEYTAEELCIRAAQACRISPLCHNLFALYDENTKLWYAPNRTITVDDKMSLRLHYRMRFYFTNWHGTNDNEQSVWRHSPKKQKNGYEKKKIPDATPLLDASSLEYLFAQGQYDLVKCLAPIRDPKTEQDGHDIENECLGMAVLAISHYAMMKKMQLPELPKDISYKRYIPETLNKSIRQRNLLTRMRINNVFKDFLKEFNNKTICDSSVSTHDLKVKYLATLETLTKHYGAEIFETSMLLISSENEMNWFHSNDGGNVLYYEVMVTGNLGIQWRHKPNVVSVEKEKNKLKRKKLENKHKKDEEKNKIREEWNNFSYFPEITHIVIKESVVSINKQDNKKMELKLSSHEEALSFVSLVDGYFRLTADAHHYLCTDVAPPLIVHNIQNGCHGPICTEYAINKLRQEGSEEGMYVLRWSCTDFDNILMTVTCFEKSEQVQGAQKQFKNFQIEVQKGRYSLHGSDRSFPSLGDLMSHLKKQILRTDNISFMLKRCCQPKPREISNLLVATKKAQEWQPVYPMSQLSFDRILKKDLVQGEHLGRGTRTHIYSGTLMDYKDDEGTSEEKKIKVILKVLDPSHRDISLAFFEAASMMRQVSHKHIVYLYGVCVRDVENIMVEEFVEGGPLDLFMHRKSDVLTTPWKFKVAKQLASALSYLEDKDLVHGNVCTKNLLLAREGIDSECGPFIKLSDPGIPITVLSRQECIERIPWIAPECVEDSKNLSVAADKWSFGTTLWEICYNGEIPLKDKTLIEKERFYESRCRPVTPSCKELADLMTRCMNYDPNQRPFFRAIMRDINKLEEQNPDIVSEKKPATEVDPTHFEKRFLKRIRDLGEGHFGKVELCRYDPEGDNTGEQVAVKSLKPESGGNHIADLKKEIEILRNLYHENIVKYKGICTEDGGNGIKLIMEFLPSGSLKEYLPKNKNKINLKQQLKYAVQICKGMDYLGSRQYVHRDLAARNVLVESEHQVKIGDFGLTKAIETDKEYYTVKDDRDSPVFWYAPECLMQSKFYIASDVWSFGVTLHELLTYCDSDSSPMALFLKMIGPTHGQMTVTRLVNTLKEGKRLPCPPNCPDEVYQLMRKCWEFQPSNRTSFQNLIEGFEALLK
Chain of TYK2 (P29597 whole entry): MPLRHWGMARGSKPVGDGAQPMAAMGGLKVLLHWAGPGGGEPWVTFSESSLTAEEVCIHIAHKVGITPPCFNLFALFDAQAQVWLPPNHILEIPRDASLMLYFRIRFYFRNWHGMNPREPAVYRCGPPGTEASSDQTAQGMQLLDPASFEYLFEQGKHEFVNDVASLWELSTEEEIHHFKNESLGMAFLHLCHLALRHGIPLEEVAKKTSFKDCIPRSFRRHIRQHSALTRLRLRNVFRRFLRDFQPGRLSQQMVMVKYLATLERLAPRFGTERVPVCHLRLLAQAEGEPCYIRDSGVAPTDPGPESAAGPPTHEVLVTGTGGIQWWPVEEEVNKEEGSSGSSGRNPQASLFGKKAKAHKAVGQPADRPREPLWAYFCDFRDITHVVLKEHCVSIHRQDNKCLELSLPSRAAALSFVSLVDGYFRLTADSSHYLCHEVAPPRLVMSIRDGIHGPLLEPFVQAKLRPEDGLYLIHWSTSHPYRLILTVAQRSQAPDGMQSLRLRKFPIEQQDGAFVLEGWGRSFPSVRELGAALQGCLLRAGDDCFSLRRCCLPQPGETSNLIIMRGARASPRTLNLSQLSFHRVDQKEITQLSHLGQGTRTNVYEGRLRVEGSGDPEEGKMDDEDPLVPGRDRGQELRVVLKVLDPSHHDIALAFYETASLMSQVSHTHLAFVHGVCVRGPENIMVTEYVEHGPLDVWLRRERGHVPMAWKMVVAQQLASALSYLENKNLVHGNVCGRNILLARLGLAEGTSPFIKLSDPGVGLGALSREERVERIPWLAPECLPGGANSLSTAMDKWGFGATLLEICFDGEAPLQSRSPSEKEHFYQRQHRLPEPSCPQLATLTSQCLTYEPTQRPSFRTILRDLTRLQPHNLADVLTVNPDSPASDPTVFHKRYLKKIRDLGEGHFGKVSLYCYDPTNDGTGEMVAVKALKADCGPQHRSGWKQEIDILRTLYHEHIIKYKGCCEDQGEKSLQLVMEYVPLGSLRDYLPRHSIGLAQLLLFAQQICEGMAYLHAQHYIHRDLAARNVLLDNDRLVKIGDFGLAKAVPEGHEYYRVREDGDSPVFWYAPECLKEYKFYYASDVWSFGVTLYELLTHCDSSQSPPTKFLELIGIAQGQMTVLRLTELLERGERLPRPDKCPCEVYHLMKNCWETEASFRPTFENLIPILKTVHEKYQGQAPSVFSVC
Chain of JAK3 (P52333 whole entry): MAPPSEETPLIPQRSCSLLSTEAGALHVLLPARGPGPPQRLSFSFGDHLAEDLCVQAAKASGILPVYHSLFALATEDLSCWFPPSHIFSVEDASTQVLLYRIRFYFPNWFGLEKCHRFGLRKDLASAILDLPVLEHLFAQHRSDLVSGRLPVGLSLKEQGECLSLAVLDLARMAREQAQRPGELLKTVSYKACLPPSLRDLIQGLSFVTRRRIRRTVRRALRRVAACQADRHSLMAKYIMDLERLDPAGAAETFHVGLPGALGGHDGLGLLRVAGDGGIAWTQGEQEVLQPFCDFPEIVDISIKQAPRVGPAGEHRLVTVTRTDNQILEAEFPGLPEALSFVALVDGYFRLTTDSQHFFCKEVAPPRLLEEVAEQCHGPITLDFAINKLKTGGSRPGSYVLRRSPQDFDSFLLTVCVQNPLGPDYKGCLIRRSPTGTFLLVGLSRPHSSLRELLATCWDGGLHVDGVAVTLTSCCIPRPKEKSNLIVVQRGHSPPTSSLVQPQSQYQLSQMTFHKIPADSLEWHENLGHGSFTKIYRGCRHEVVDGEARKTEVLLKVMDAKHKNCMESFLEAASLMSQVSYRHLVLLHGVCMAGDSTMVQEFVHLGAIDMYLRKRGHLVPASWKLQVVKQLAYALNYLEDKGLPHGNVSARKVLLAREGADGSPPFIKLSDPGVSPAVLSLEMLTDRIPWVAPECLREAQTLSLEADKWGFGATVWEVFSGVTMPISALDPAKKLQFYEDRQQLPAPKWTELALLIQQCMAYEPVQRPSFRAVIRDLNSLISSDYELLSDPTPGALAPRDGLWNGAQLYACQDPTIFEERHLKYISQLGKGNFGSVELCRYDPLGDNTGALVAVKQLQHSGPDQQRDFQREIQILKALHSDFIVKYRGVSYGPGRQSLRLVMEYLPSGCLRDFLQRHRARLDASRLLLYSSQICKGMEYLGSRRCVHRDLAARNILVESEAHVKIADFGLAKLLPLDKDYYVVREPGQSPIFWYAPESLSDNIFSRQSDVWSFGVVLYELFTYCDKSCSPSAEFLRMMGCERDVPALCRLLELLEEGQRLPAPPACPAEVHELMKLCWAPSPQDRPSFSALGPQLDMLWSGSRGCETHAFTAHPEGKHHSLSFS
Chain of JAK2 (O60674 whole entry): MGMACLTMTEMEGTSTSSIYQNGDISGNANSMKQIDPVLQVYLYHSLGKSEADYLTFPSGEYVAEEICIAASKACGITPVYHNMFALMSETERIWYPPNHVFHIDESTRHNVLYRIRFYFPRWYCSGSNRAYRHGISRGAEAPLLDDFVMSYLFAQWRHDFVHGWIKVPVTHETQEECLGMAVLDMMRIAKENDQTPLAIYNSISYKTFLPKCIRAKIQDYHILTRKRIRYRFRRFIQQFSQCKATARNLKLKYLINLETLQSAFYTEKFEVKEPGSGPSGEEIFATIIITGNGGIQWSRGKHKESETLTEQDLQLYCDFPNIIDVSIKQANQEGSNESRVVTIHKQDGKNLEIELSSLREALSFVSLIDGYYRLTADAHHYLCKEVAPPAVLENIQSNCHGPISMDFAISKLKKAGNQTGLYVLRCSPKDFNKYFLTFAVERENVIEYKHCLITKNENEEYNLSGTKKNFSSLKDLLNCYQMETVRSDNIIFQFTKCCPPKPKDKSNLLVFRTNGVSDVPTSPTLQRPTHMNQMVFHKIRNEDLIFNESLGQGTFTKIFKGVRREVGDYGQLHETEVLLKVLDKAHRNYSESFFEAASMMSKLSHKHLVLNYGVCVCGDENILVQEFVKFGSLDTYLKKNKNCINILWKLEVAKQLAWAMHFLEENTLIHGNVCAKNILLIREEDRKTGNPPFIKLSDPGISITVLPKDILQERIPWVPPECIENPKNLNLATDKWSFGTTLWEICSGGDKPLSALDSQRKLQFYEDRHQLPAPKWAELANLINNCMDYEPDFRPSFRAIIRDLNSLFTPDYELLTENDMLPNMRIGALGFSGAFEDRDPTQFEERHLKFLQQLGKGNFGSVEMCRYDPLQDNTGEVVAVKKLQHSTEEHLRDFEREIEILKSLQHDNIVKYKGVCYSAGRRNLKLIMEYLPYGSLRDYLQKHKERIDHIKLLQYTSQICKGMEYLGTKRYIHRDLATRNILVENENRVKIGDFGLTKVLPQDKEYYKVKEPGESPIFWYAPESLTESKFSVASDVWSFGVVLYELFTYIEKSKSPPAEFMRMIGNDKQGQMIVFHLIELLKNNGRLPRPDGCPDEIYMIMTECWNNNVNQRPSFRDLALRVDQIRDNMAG

| Kd [1] | Kd [2] | Kd [5] | solubility thermodynamic at 24 h ([6]; Run 1, read-out: pH 6.5 FaSSCoF Solubility, Run 1) | solubility thermodynamic at 24 h ([6]; Run 2, read-out: pH 6.5 FaSSCoF Solubility, Run 2) | Kd [7] | SMILES | % viability at 1 μg/mL [3] | IC50 [4] |
| --- | --- | --- | --- | --- | --- | --- | --- | --- |
| 0.046 nM | 0.6 nM | 0.034 nM | 30 µg/mL (≈ 52.5 µM) | 30 µg/mL (≈ 52.5 µM) | 0.069 nM | CCc1cc(O)c(F)cc1-c1ccc2c(-c3nc4c([nH]3)CCN(C(=O)N3CCC(N5CCCCC5)CC3)C4)n[nH]c2c1 [Example 2(a), [1,4′-bipiperidin]-1′-yl(2-(6-(2-ethyl-5-fluoro-4-hydroxyphenyl)-1H-indazol-3-yl)-1,4,6,7-tetrahydro-5H-imidazo[4,5-c]pyridin-5-yl)methanone] | 59% | 48.4 nM |
|  |  |  |  |  |  | CCc1cc(O)c(F)cc1-c1ccc2c(-c3nc4c([nH]3)CCN(C(=O)N(C)c3ccccc3)C4)n[nH]c2c1 [Example 2(e), 2-(6-(2-ethyl-5-fluoro-4-hydroxyphenyl)-1H-indazol-3-yl)-N-methyl-N-phenyl-1,4,6,7-tetrahydro-5H-imidazo[4,5-c]pyridine-5-carboxamide] | 92% | 10.9 nM |
|  |  |  |  |  |  | CCc1cc(O)c(F)cc1-c1ccc2c(-c3nc4c([nH]3)CCN(S(=O)(=O)N3CCOCC3)C4)n[nH]c2c1 [Example 6(e), 5-ethyl-2-fluoro-4-(3-(5-(morpholinosulfonyl)-4,5,6,7-tetrahydro-1H-imidazo[4,5-c]pyridin-2-yl)-1H-indazol-6-yl)phenol] | 64% | 4.7 nM |
|  |  |  |  |  |  | CCc1cc(O)c(F)cc1-c1ccc2c(-c3nc4c([nH]3)CCN(S(=O)(=O)N3CCN(C=O)CC3)C4)n[nH]c2c1 [Example 6(h), 4-((2-(6-(2-ethyl-5-fluoro-4-hydroxyphenyl)-1H-indazol-3-yl)-6,7-dihydro-1H-imidazo[4,5-c]pyridin-5(4H)-yl)sulfonyl)piperazine-1-carbaldehyde] | 93% | 37.4 nM |
|  |  |  |  |  |  | CCc1cc(O)c(F)cc1-c1ccc2c(-c3nc4c([nH]3)CCN(S(=O)(=O)N3CCS(=O)(=O)CC3)C4)n[nH]c2c1 [Example 6(g), 4-((2-(6-(2-ethyl-5-fluoro-4-hydroxyphenyl)-1H-indazol-3-yl)-6,7-dihydro-1H-imidazo[4,5-c]pyridin-5(4H)-yl)sulfonyl)thiomorpholine 1,1-dioxide] | 88% | 7.2 nM |
|  |  |  |  |  |  | CCc1cc(O)c(F)cc1-c1ccc2c(-c3nc4c([nH]3)CCN(S(=O)(=O)N(CCC#N)CCOC)C4)n[nH]c2c1 [Example 6(a), N-(2-cyanoethyl)-2-(6-(2-ethyl-5-fluoro-4-hydroxyphenyl)-1H-indazol-3-yl)-N-(2-methoxyethyl)-6,7-dihydro-1H-imidazo[4,5-c]pyridine-5(4H)-sulfonamide] | 79% | 9.5 nM |
